Among the test systems are A498 renal; COLO 205 colon; HCT-15 colon; MALME-3M melanoma; MDA-MB-435; OVCAR-5 ovarian; SNB-19 CNS; TK-10 renal; U251 CNS; UO-31 renal.
Common to all, as to assay: DTP human tumour cell line panel, 48 h

A word on the GI50: it is the concentration giving 50% growth inhibition. The term TGI denotes the concentration at which net growth stops. A higher TGI goes with less potent growth arrest.

“And” between values parts separate entries of the source, which are not always exact repeats. Equal values may be shown once.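 1) Cells in 96-well plates. 2) Compound, 48 h, 5 concentrations. 3) Linear interpolation between surrounding doses. 4) Unreached endpoint = highest concentration. GI50 = concentration required for 50% inhibition of growth. TGI: total growth inhibition.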 Where only a bound is given, the exact number is not on record here.

As for `Cc1cc(C)c(C[N+](C)(C)C)c(C)c1C`, the GI50 in the test with A498 renal is 0.729 µM; in the test with COLO 205 colon it was 0.236 µM; with HCT-15 colon, 0.313 µM; with MALME-3M melanoma it was 0.594 µM; in the test with MDA-MB-435, 0.328 µM; in the test on OVCAR-5 ovarian it was 0.48 µM. In addition, the GI50 in the test on SNB-19 CNS is 0.351 µM; in the test on TK-10 renal, 0.528 µM; with U251 CNS, 0.307 µM; in the test on UO-31 renal, 0.333 µM. For the same compound, the TGI is 8.66 µM with A498 renal; 1.85 µM in the test with COLO 205 colon; 19.4 µM in the test on HCT-15 colon; 32.2 µM in the test with MALME-3M melanoma; 12.5 µM in the test on MDA-MB-435; greater than 62.1 µM with OVCAR-5 ovarian. For the same compound, the TGI is greater than 64.5 µM in the test with SNB-19 CNS, 12.1 µM in the test with TK-10 renal, 34.7 µM in the test with U251 CNS and 42.8 µM with UO-31 renal.

Turning to `COC1CC2C=C(C)/C=C/C=C/C(=O)NC(c3ccccc3)C/C=C/CCC(O)CC(=O)C2=C1O` (centres undefined), the GI50 with A498 renal was 0.166 µM; in the test on COLO 205 colon it was 0.159 µM; in the test on HCT-15 colon it was 0.274 µM; with MALME-3M melanoma, 0.214 µM; with MDA-MB-435, 0.313 µM; with OVCAR-5 ovarian, 0.357 µM. Further, the 50% growth inhibitory concentration (GI50) in the test with SNB-19 CNS is 0.279 µM; in the test with TK-10 renal, 0.298 µM; in the test on U251 CNS, 0.153 µM; in the test on UO-31 renal, 0.281 µM. Also, the TGI in the test on A498 renal worked out at 0.654 µM; in the test with COLO 205 colon, 0.315 µM; with HCT-15 colon, 1.29 µM; in the test with MALME-3M melanoma it was 1.19 µM; in the test with MDA-MB-435 it was 1.29 µM; in the test with OVCAR-5 ovarian, 1.24 µM. Besides, the TGI with SNB-19 CNS is 1.42 µM; with TK-10 renal it was 1.31 µM; in the test on U251 CNS, 0.994 µM; with UO-31 renal, 1.14 µM.

For `CC[C@@]1(O)C(=O)NCc2c1cc1n(c2=O)Cc2cc3c(N)cccc3nc2-1`, the GI50 with A498 renal was 5.09 µM; in the test on COLO 205 colon it was 8.35 µM; in the test with HCT-15 colon it was 11.5 µM; in the test with MALME-3M melanoma it was 1.1 µM; with MDA-MB-435, 4.8 µM; in the test with OVCAR-5 ovarian it was 11.8 µM. For the same compound, the GI50 was 2.93 µM with SNB-19 CNS, 20.1 µM in the test with TK-10 renal, 2 µM in the test with U251 CNS and 0.866 µM in the test on UO-31 renal. For the same compound, the concentration for total growth inhibition (TGI) with A498 renal is 38.6 µM; in the test with COLO 205 colon, greater than 48.1 µM; in the test on HCT-15 colon it was greater than 100 µM; with MDA-MB-435 it was 18.5 µM; with OVCAR-5 ovarian, greater than 94.5 µM; with SNB-19 CNS, greater than 50.7 µM. Further, the TGI in the test with TK-10 renal was greater than 52.8 µM; with U251 CNS, greater than 46.8 µM; in the test on UO-31 renal, 7.12 µM.

As to `C[C@]1(CO)[C@H]2CC[C@@]34C=C[C@@](CO)(CC[C@H]3[C@]2(C)CC[C@H]1O)C4`, the TGI in the test on A498 renal, in the test with COLO 205 colon, in the test with HCT-15 colon, in the test on MALME-3M melanoma, in the test on MDA-MB-435 and in the test with OVCAR-5 ovarian was greater than 100 µM throughout. Besides, the TGI in the test with SNB-19 CNS, in the test with TK-10 renal, with U251 CNS and in the test with UO-31 renal was greater than 100 µM throughout.

In the case of `CCOC(=O)C(Cc1c[nH]c2ccc(N(CCCl)CCCl)cc12)(NC(C)=O)C(=O)OCC`, the GI50 is 20.3 µM in the test on A498 renal; 12.2 µM and 15.3 µM with COLO 205 colon; 14.6 µM and 16.1 µM in the test with HCT-15 colon; 11.1 µM in the test on MALME-3M melanoma; 16.9 µM in the test with MDA-MB-435; 30.8 µM and 25.2 µM in the test on OVCAR-5 ovarian. The GI50 in the test on SNB-19 CNS was 19.6 µM; in the test with TK-10 renal it was 22.2 µM and 17.6 µM; in the test on U251 CNS, 10.6 µM and 7.88 µM; with UO-31 renal, 20.7 µM and 10.5 µM. Also, the TGI in the test on A498 renal was 54.2 µM; with COLO 205 colon it was 30.4 µM and 44.2 µM; with HCT-15 colon, 39.9 µM and 53.4 µM; in the test on MALME-3M melanoma, 28.3 µM; in the test on MDA-MB-435 it was 33.1 µM; with OVCAR-5 ovarian, 67 µM and 75.7 µM. Also, the TGI was 312 µM in the test with SNB-19 CNS; 60.5 µM and 62.7 µM in the test on TK-10 renal; 35.4 µM and 35.3 µM in the test on U251 CNS; 53.8 µM and 46 µM in the test with UO-31 renal.

Take `CC(C)c1ccc(C(=O)Nc2sc3c(c2C#N)CCC(=O)C3)cc1`: the GI50 in the test with A498 renal is 1.92 µM; in the test with COLO 205 colon it was 0.49 µM; with HCT-15 colon it was 0.31 µM; in the test on MALME-3M melanoma, 1.17 µM; in the test on MDA-MB-435, 1.02 µM; in the test on OVCAR-5 ovarian, 0.552 µM. The GI50 in the test with SNB-19 CNS is 0.409 µM; in the test with TK-10 renal it was 0.613 µM; in the test on U251 CNS it was 0.338 µM; in the test on UO-31 renal, 0.252 µM. Moreover, the TGI with A498 renal stood at 6.29 µM; in the test on COLO 205 colon, 2.87 µM; in the test with HCT-15 colon it was 1.95 µM; in the test on MALME-3M melanoma, 3.82 µM; in the test with MDA-MB-435, 5.72 µM; in the test with OVCAR-5 ovarian it was 5.11 µM. Also, the TGI was greater than 100 µM in the test with SNB-19 CNS, 5.47 µM with TK-10 renal, greater than 100 µM in the test with U251 CNS and 0.982 µM in the test with UO-31 renal.

Consider `CCCCNN`, for which the TGI in the test on A498 renal, in the test with COLO 205 colon, in the test with HCT-15 colon, with MALME-3M melanoma, in the test with MDA-MB-435 and with OVCAR-5 ovarian was greater than 100 µM each time. Also, the TGI in the test with SNB-19 CNS, in the test on TK-10 renal, in the test on U251 CNS and in the test with UO-31 renal was greater than 100 µM throughout.

Turning to `CCOC(=O)C(CO)c1nc2c([nH]c1=O)c(=O)n(C)c(=O)n2C` (centres undefined), the TGI with A498 renal, in the test on COLO 205 colon, in the test on HCT-15 colon, with MALME-3M melanoma, in the test on MDA-MB-435 and in the test with OVCAR-5 ovarian was greater than 100 µM throughout. The TGI in the test with SNB-19 CNS, in the test on TK-10 renal, in the test on U251 CNS and in the test with UO-31 renal was greater than 100 µM in each case.

As to `COC(=O)c1c2c(c(C)[n+]([O-])c1C)C(=O)C=C(NCc1ccc(F)c(F)c1)C2=O`, the GI50 was 0.931 µM with A498 renal; 0.257 µM with COLO 205 colon; 0.235 µM with HCT-15 colon; 0.139 µM in the test with MALME-3M melanoma; 0.131 µM with MDA-MB-435; 1.14 µM in the test with OVCAR-5 ovarian. Also, the GI50 in the test with SNB-19 CNS is 1.08 µM; with TK-10 renal, 2.06 µM; in the test on U251 CNS, 0.458 µM; with UO-31 renal it was 1.11 µM. In addition, the TGI is 2.43 µM with A498 renal; 0.713 µM with COLO 205 colon; 1.44 µM in the test with HCT-15 colon; 0.301 µM in the test on MALME-3M melanoma; 0.27 µM in the test with MDA-MB-435; 2.49 µM in the test with OVCAR-5 ovarian. Moreover, the TGI in the test on SNB-19 CNS amounted to 2.29 µM; with TK-10 renal, 4.82 µM; in the test on U251 CNS it was 1.72 µM; in the test with UO-31 renal, 2.35 µM.

The values above are taken from PubChem BioAssay (NCI).
